We go through nine compounds from ChEMBL document CHEMBL4715697, “Synthesis and biological activity of benzamide DNA minor groove binders” (2016).

One test relates to HL-60(TB). As to the kind of experiment: Growth inhibition of human HL-60(TB) cells assessed as cell growth at 10 uM incubated for 48 hrs by sulforhodamine B assay relative to control. It is filed as functional. The settings on record: read-out: Activity. In general terms: Sulforhodamine B stains cellular protein and so reports cell mass.
Another test relates to EKVX. As to the kind of experiment: Growth inhibition of human EKVX cells assessed as cell growth at 10 uM incubated for 48 hrs by sulforhodamine B assay relative to control. It is filed as functional. The settings on record: read-out: Activity.
The test system of the next test is NCI-H226. As to the kind of experiment: Growth inhibition of human NCI-H226 cells assessed as cell growth at 10 uM incubated for 48 hrs by sulforhodamine B assay relative to control. It is filed as functional. The settings on record: read-out: Activity.
A further test deals with NCI-H322M. The test is described as follows: Growth inhibition of human NCI-H322M cells assessed as cell growth at 10 uM incubated for 48 hrs by sulforhodamine B assay relative to control. It is filed as functional. The settings on record: read-out: Activity.
Another test relates to COLO 205. As to the kind of experiment: Growth inhibition of human COLO 205 cells assessed as cell growth at 10 uM incubated for 48 hrs by sulforhodamine B assay relative to control. It is filed as functional. The settings on record: read-out: Activity.
The test system of another test is KM12. As to the kind of experiment: Growth inhibition of human KM12 cells assessed as cell growth at 10 uM incubated for 48 hrs by sulforhodamine B assay relative to control. It is filed as functional. The settings on record: read-out: Activity.
Another test concerns SF-539. As to the kind of experiment: Growth inhibition of human SF-539 cells assessed as cell growth at 10 uM incubated for 48 hrs by sulforhodamine B assay relative to control. It is filed as functional. The settings on record: read-out: Activity.
The next test concerns SNB-19. As to the kind of experiment: Growth inhibition of human SNB-19 cells assessed as cell growth at 10 uM incubated for 48 hrs by sulforhodamine B assay relative to control. It is filed as functional. The settings on record: read-out: Activity.
In the next test the test system is Malme-3M. As to the kind of experiment: Growth inhibition of human Malme-3M cells assessed as cell growth at 10 uM incubated for 48 hrs by sulforhodamine B assay relative to control. It is filed as functional. The settings on record: read-out: Activity.
Another test deals with SK-MEL-2. As to the kind of experiment: Growth inhibition of human SK-MEL-2 cells assessed as cell growth at 10 uM incubated for 48 hrs by sulforhodamine B assay relative to control. The test is classed as functional. The settings on record: read-out: Activity.
The test system of another test is SK-MEL-28. As to the kind of experiment: Growth inhibition of human SK-MEL-28 cells assessed as cell growth at 10 uM incubated for 48 hrs by sulforhodamine B assay relative to control. The test is classed as functional. The settings on record: read-out: Activity.
A further test has as its system NCI/ADR-RES. The test is described as follows: Growth inhibition of human NCI/ADR-RES cells assessed as cell growth at 10 uM incubated for 48 hrs by sulforhodamine B assay relative to control. It is filed as functional. The settings on record: read-out: Activity.
The test system of a further test is MCF7. The test is described as follows: Growth inhibition of human MCF7 cells assessed as cell growth at 10 uM incubated for 48 hrs by sulforhodamine B assay relative to control. The test is classed as functional. The settings on record: read-out: Activity.
Another test has as its system MDA-MB-231. The test is described as follows: Growth inhibition of human MDA-MB-231 cells assessed as cell growth at 10 uM incubated for 48 hrs by sulforhodamine B assay relative to control. It is filed as functional. The settings on record: read-out: Activity.
For a further test, the system named is Hs-578T. The test is described as follows: Growth inhibition of human Hs-578T cells assessed as cell growth at 10 uM incubated for 48 hrs by sulforhodamine B assay relative to control. It is filed as functional. The settings on record: read-out: Activity.
The subject of the next test is T47D. As to the kind of experiment: Growth inhibition of human T47D cells assessed as cell growth at 10 uM incubated for 48 hrs by sulforhodamine B assay relative to control. The settings on record: read-out: Activity. It is filed as functional.
Test [1] has as its system Poly(dA-dT)oligonucleotide. As to the kind of experiment: Binding affinity to minor groove of poly(dA:dT) dsDNA (unknown origin) assessed as change in melting temperature by UV-vis spectrophotometry based DNA melting assay. The test is classed as nucleic-acid assay.
The next test concerns SF-295. The test is described as follows: Growth inhibition of human SF-295 cells assessed as cell growth at 10 uM incubated for 48 hrs by sulforhodamine B assay relative to control. The test is classed as functional. The settings on record: read-out: Activity.
The test system of test [2] is Poly(dA-dT)oligonucleotide. As to the kind of experiment: Displacement of ethidium bromide from minor groove of poly(dA:dT) dsDNA (unknown origin) by fluorescence spectrophotometry. The test is classed as nucleic-acid assay.
A further test has as its system OVCAR-4. As to the kind of experiment: Growth inhibition of human OVCAR-4 cells assessed as cell growth at 10 uM incubated for 48 hrs by sulforhodamine B assay relative to control. The test is classed as functional. The settings on record: read-out: Activity.

Some results are limits rather than exact numbers.

For the compound `CC(=O)Nc1ccc(C(=O)Nc2cc(CO)cc(NC(C)=O)c2)cc1`, the growth at 10 µM came out at 101% in the test on HL-60(TB); 112% in the test with EKVX; 99.9% with NCI-H226; 109% in the test with NCI-H322M; 118% in the test with COLO 205; 115% with KM12. The growth at 10 µM in the test with SF-539 was determined as 107%; in the test on SNB-19, 100%; in the test on Malme-3M it was 115%; with SK-MEL-2, 96.3%; in the test with SK-MEL-28, 116%; in the test on NCI/ADR-RES it was 110%. The growth at 10 µM in the test on MCF7 was determined as 95.3%; with MDA-MB-231, 115%; in the test on Hs-578T, 121%; with T47D, 94.7%.
By ΔTm is commonly meant the shift of the melting midpoint relative to a reference. `CCN(CC)CC(=O)Nc1ccc(C(=O)Nc2cc(CO)cc(NC(C)=O)c2)cc1`: the ΔTm in test [1] was 10.2 °C. Moreover, the growth at 10 µM with HL-60(TB) turned out to be 107%; with EKVX, 104%; in the test with NCI-H226, 95.8%; in the test on NCI-H322M, 105%; with COLO 205, 118%; with KM12 it was 107%. In addition, the growth at 10 µM worked out at 136% in the test on SF-295; 99.7% in the test with SF-539; 98% with SNB-19; 103% in the test on Malme-3M; 107% with SK-MEL-2; 116% with SK-MEL-28. For the same compound, the growth at 10 µM was determined as 110% in the test on NCI/ADR-RES, 100% in the test on MCF7, 112% in the test with MDA-MB-231 and 99.1% in the test with T47D.
Take `CC(=O)Nc1cc(CO)cc(NC(=O)c2ccc(NC(=O)CCCN3CCOCC3)cc2)c1`: the growth at 10 µM with HL-60(TB) worked out at 106%; in the test on EKVX, 103%; in the test with NCI-H226 it was 95.6%; in the test with NCI-H322M, 107%; in the test on COLO 205 it was 106%; in the test with KM12, 109%. Further, the growth at 10 µM with SF-295 turned out to be 150%; in the test on SF-539, 97.6%; in the test with SNB-19 it was 99.4%; in the test with Malme-3M it was 130%; in the test on SK-MEL-2, 101%; in the test with SK-MEL-28, 113%. In addition, the growth at 10 µM in the test with NCI/ADR-RES was 106%; in the test with MCF7, 102%; in the test with MDA-MB-231, 102%; in the test on Hs-578T, 114%; with T47D, 98.7%.
For the compound `CC(=O)Nc1cc(CO)cc(NC(=O)c2ccc(C(=O)NCCCN(C)C)cc2)c1`, in [2], the C50 was > 1 mM. The growth at 10 µM amounted to 104% in the test with HL-60(TB); 108% in the test with EKVX; 92% in the test with NCI-H226; 121% in the test with NCI-H322M; 114% in the test with COLO 205; 118% in the test with KM12. In addition, the growth at 10 µM in the test on SF-539 amounted to 110%; in the test on SNB-19, 101%; with Malme-3M, 100%; with SK-MEL-2 it was 92.9%; in the test on SK-MEL-28, 108%; with OVCAR-4, 103%. The growth at 10 µM in the test on NCI/ADR-RES was found to be 112%; in the test on MCF7, 101%; in the test on MDA-MB-231, 105%; in the test with Hs-578T, 114%; in the test with T47D, 92.9%.
With `CC(=O)Nc1cccc(NC(=O)c2ccc(C(=O)Nc3cc(CO)cc(NC(C)=O)c3)cc2)c1`, the growth at 10 µM is 96.9% in the test with HL-60(TB); 112% in the test on EKVX; 97.1% in the test on NCI-H226; 115% in the test on NCI-H322M; 111% in the test with COLO 205; 111% in the test on KM12. Further, the growth at 10 µM with SF-539 was found to be 106%; in the test on SNB-19, 112%; with Malme-3M, 107%; in the test with SK-MEL-2, 88.1%; in the test with SK-MEL-28 it was 111%; with OVCAR-4, 68.7%. Also, the growth at 10 µM is 113% in the test with NCI/ADR-RES, 93.3% with MCF7, 110% in the test with MDA-MB-231 and 86.2% in the test with T47D.
For the compound `CC(=O)Nc1cc(CO)cc(NC(=O)c2ccc(C(=O)NCCCN3CCOCC3)cc2)c1`, the growth at 10 µM with HL-60(TB) amounted to 107%; in the test with EKVX, 115%; in the test with NCI-H226, 95.6%; in the test with NCI-H322M it was 105%; with COLO 205 it was 106%; with KM12, 113%. Besides, the growth at 10 µM was 97.3% in the test on SF-539; 107% in the test on SNB-19; 106% in the test on Malme-3M; 94.3% in the test with SK-MEL-2; 102% in the test with SK-MEL-28; 67.9% in the test on OVCAR-4. Moreover, the growth at 10 µM with NCI/ADR-RES turned out to be 113%; with MCF7, 102%; in the test with MDA-MB-231 it was 103%; in the test on T47D it was 108%.
With `CC(=O)Nc1cccc(NC(=O)c2ccc(C(=O)Nc3cc(CCl)cc(NC(C)=O)c3)cc2)c1`, the growth at 10 µM with HL-60(TB) was 93.4%; with EKVX, 114%; in the test with NCI-H226 it was 101%; with NCI-H322M it was 125%; in the test with COLO 205 it was 108%; in the test on KM12 it was 118%. Also, the growth at 10 µM with SF-539 was found to be 109%; in the test on SNB-19, 104%; with Malme-3M it was 99.6%; in the test with SK-MEL-2 it was 100%; in the test with SK-MEL-28 it was 115%; in the test with OVCAR-4 it was 119%. Further, the growth at 10 µM in the test on NCI/ADR-RES is 109%; with MCF7, 102%; in the test on MDA-MB-231, 115%; in the test on Hs-578T, 114%; in the test on T47D, 95.8%.
Regarding `CC(=O)Nc1cc(CO)cc(NC(=O)c2cccc(NC(=O)CCCN3CCOCC3)c2)c1`, the growth at 10 µM amounted to 110% with HL-60(TB); 113% with EKVX; 96.7% in the test with NCI-H226; 105% in the test on NCI-H322M; 110% in the test on COLO 205; 135% in the test on KM12. The growth at 10 µM in the test on SF-295 is 120%; with SF-539, 98.9%; with SNB-19, 97.7%; in the test with Malme-3M, 112%; with SK-MEL-2, 97.8%; in the test on SK-MEL-28, 115%. Moreover, the growth at 10 µM was 107% in the test on NCI/ADR-RES; 105% with MCF7; 104% in the test on MDA-MB-231; 114% in the test on Hs-578T; 96% in the test with T47D.
Turning to `CC(=O)Nc1cc(CO)cc(NC(=O)c2ccc(C(=O)Nc3cc(CO)cc(NC(C)=O)c3)cc2)c1`, the growth at 10 µM in the test with HL-60(TB) was found to be 107%; in the test on EKVX, 115%; with NCI-H226, 94.9%; with NCI-H322M, 103%; in the test on COLO 205, 109%; with KM12, 136%. The growth at 10 µM with SF-295 is 96.8%; with SF-539, 99.6%; in the test on SNB-19 it was 102%; in the test on Malme-3M it was 113%; in the test on SK-MEL-2 it was 93.3%; in the test with SK-MEL-28, 117%. The growth at 10 µM stood at 110% in the test with NCI/ADR-RES; 97.4% in the test with MCF7; 104% with MDA-MB-231; 101% in the test on Hs-578T; 92% in the test on T47D.
